Like-named read-outs stand apart in the source and are kept apart here.
Assays:
[1] = system: modified FADGDH GDH-6, random mutant of FADGDH of SEQ ID No. 5; assay: Michaelis constant of GDH-6 in aqueous system (DCPIP/PMS, Lineweaver-Burk plot); type: biochemical; details: pH 6.5, 37° C., Lineweaver-Burk at 30, 50, 100, 200 mM, read-out: Michaelis constant (Km) for glucose
Experimental: (§1) In the present invention, the activity of glucose dehydrogenase is defined using, as 1 unit (U), the amount of enzyme that reduces 1 micromole of DCPIP per minute in the presence of a substrate according to a method using a reagent having the following formulation.
(§2) 50 mM PIPES buffer (pH: 6.5; containing 0.1% TritonX-100)
(§3) 2 mM 2,5-dichlorophenolindophenol (DCPIP) solution
(§4) First, 3 ml of reaction reagent is pre-warmed at 37° C. for 5 minutes. 0.1 ml of GDH solution is added thereto, and the resulting mixture is gently mixed. Then, the change in absorbance at 600 nm is record for 5 minutes by a spectrophotometer adjusted at 37° C. with water as a control, and the change in absorbance per minute (ΔODTEST) is measured from the straight line portion. In a blind test, a solvent that dissolves GDH is added to the reagent mixture, instead of the GDH solution, and the change in absorbance per minute (ΔODBLANK) is similarly measured. From these values, GDH activity is determined according to the following formula. […] Activity (U/ml)={−(ΔODTEST−ΔODBLANK)×3.0×dilution magnification}/{16.3×0.1×1.0} […]

[2] = system: modified FADGDH GDH-5, random mutant of FADGDH of SEQ ID No. 5; assay: Michaelis constant of GDH-5 in aqueous system (DCPIP/PMS, Lineweaver-Burk plot); type: biochemical; details: pH 6.5, 37° C., Lineweaver-Burk at 30, 50, 100, 200 mM, read-out: Michaelis constant (Km) for glucose
Experimental: as §1, §2, §3, §4

[3] = system: FADGDH enzymes of Table 1 (GDH-1 to GDH-4); assay: Km for D-glucose of the enzymes listed in Table 1; type: biochemical; details: read-out: Km for D-glucose; range over the enzymes listed in Table 1
Experimental: as §1
First, 3 ml of reaction reagent is pre-warmed at 37° C. for 5 minutes. 0.1 ml of GDH solution is added thereto, and the resulting mixture is gently mixed. Then, the change in absorbance at 600 nm is record for 5 minutes by a spectrophotometer adjusted at 37° C. with water as a control, and the change in absorbance per minute (ΔODTEST) is measured from the straight line portion. In a blind test, a solvent that dissolves GDH is added to the reagent mixture, instead of the GDH solution, and the change in absorbance per minute (ΔODBLANK) is similarly measured. From these values, GDH activity is determined according to the following formula. […] Activity (U/ml)={−(ΔODTEST−ΔODBLANK)×3.0×dilution magnification}/{16.3×0.1×1.0}
GDH-3 is obtained by genetically engineering and expressing GDH having an amino acid sequence of SEQ ID No. 3 (the amino acid sequence represented by SEQ ID No. 1 of JP4649993B) using the Cryptococcus sp. S-2 D11 strain (FERM BP-11482) described in JP5588578B. […]

[4] = system: FADGDH GDH-2, SEQ ID No. 2 (SEQ ID No. 1 of JP2013-116102A); assay: Michaelis constant of GDH-2 in aqueous system (DCPIP/PMS, Lineweaver-Burk plot); type: biochemical; details: pH 6.5, 37° C., Lineweaver-Burk at 30, 50, 100, 200 mM, read-out: Michaelis constant (Km) for glucose
Experimental: as §1, §2, §3, §4

[5] = system: FADGDH GDH-3, SEQ ID No. 3 (SEQ ID No. 1 of JP4649993B); assay: Michaelis constant of GDH-3 in aqueous system (DCPIP/PMS, Lineweaver-Burk plot); type: biochemical, Mucor prainii; details: pH 6.5, 37° C., Lineweaver-Burk at 30, 50, 100, 200 mM, read-out: Michaelis constant (Km) for glucose
Experimental: as §1, §2, §3, §4

[6] = system: FADGDH GDH-4, SEQ ID No. 4 (SEQ ID No. 1 of JP2015-146773A); assay: Michaelis constant of GDH-4 in aqueous system (DCPIP/PMS, Lineweaver-Burk plot); type: biochemical; details: pH 6.5, 37° C.
Experimental: as §1, §2, §3, §4

[7] = substrate: OC[C@H]1OC(O)[C@H](O)[C@@H](O)[C@@H]1O; assay: purified protein, by the assay type; details: other: pH 6.5, 37° C., aqueous system, Lineweaver-Burk at 30, 50, 100, 200 mM
[8] = substrate: OC1OC[C@@H](O)[C@H](O)[C@H]1O; assay: purified protein, by the assay type; details: other: pH 6.5, 37° C., aqueous system, Lineweaver-Burk

OC[C@H]1OC(O)[C@H](O)[C@@H](O)[C@@H]1O (stereo partly drawn) [D-glucose]
Km [1]: 82 mM
Km [2]: 80 mM
Km [3]: 14 to 82 mM
Km [4]: 16 mM
Km [5]: 31 mM
Km ([6]; Lineweaver-Burk at 30, 50, 100, 200 mM, read-out: Michaelis constant (Km) for glucose): 14 mM

OC1OC[C@@H](O)[C@H](O)[C@H]1O (stereo partly drawn) [D-xylose]
Km ([6]; Lineweaver-Burk, read-out: Michaelis constant (Km) for xylose): 82 mM

B1: FADGDH GDH-1, SEQ ID No. 1 (encoded by SEQ ID No. 8 of JP527482B) (Aspergillus oryzae) (protein)
chain: MKNTTTYDYIVVGGGTSGLVVANRLSENPDVSVLLLEAGASVFNNPDVTNANGYGLAFGSAIDWQYQSINQSYAGGKQQVLRAGKALGGTSTINGMAYTRAEDVQIDVWQKLGNEGWTWKDLLPYYLKSENLTAPTSSQVAAGAAYNPAVNGKEGPLKVGWSGSLASGNLSVALNRTFQAAGVPWVEDVNGGKMRGFNIYPSTLDVDLNVREDAARAYYFPYDDRKNLHLLENTTANRLFWKNGSAEEAIADGVEITSADGKVTRVHAKKEVIISAGALRSPLILELSGVGNPTILKKNNITPRVDLPTVGENLQDQFNNGMAGEGYGVLAGASTVTYPSISDVFGNETDSIVASLRSQLSDYAAATVKVSNGHMKQEDLERLYQLQFDLIVKDKVPIAEILFHPGGGNAVSSEFWGLLPFARGNIHISSNDPTAPAAINPNYFMFEWDGKSQAGIAKYIRKILRSAPLNKLIAKETKPGLSEIPATAADEKWVEWLKANYRSNFHPVGTAAMMPRSIGGVVDNRLRVYGTSNVRVVDASVLPFQVCGHLVSTLYAVAERASDLIKEDAKSA
Km [7]: 68 mM
Km [8]: 39 mM

— patent US11591631B2, “Glucose monitoring method and glucose sensor” (TOYOBO CO., LTD., priority 2017, dated 2023)
